Assay results: patent US12371454B2, “Cyclic peptide compound having Kras inhibitory action” (priority 2019, dated 2025)
Starred links: 1 amine or outer side, 2 acyl side, 3 side chain; linkers in the order of their positions; H or OH if unused. Positions of bridges follow the written chain, without caps; N, C: chain ends. Non-standard residues stand in square brackets, D forms with d. Residues, ends and D or L forms follow the SMILES beside them. *: point of attachment. hPhe(3-Cl-4-CF3) = N[C@@H](CCc1ccc(C(F)(F)F)c(Cl)c1)C(=O)O; hPhe(3-F,4-CF3) = N[C@@H](CCc1ccc(C(F)(F)F)c(F)c1)C(=O)O; NMePhe(4-CF3) = CN[C@@H](Cc1ccc(C(F)(F)F)cc1)C(=O)O; NMePhe(4-Cl) = CN[C@@H](Cc1ccc(Cl)cc1)C(=O)O; NMePhe(4-Me) = CN[C@@H](Cc1ccc(C)cc1)C(=O)O; NMedβ3hAla = C[C@H](CC(=O)[*:2])N(C)[*:1]; NMeAla(cPent) = CN[C@@H](CC1CCCC1)C(=O)O; NMeNva(5,5-F2) = CN[C@@H](CCC(F)F)C(=O)O; NMeGly(cPent) = CN[C@H](C(=O)O)C1CCCC1; Pro(4,4-F2) = O=C(O)[C@@H]1CC(F)(F)CN1; NMeCha = CN[C@@H](CC1CCCCC1)C(=O)O; cisHyp = O=C(O)[C@@H]1C[C@H](O)CN1; NMehLeu = CN[C@@H](CCC(C)C)C(=O)O; Hyp = O=C(O)[C@@H]1C[C@@H](O)CN1; NEtLeu = CCN[C@@H](CC(C)C)C(=O)O; NMeChg = CN[C@H](C(=O)O)C1CCCCC1; NMeI = CC[C@H](C)[C@H](NC)C(=O)O; X61 = O=C(CN(CC1COC1)[*:1])[*:2]; Piperidide(4-Me) = CC1CCN(*)CC1; NMeD = CN[C@@H](CC(=O)O)C(=O)O; NMeL = CN[C@@H](CC(C)C)C(=O)O; NMeV = CN[C@H](C(=O)O)C(C)C; d(β3hA) = C[C@@H](N)CC(=O)O; NMeS = CN[C@@H](CO)C(=O)O; Morpholide = C1CN(*)CCO1; NMeA = CN[C@@H](C)C(=O)O; Piperidide = C1CCN(*)CC1; Pyrrolidide = C1CCN(*)C1; dNMeA = CN[C@H](C)C(=O)O; Ac5c = NC1(C(=O)O)CCCC1; Aze = O=C(O)[C@@H]1CCN1; Ethyl(2-OH) = OCC*; Sar = CNCC(=O)O; Propyl = CCC*

Test system: Human pancreatic cancer cell line AsPC-1
Assay: Measurement of AsPC-1 cell growth inhibition (AsPC-1 CGI)
Format: cell-based
Conditions: 96 h
Method in brief: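 AsPC-1 cells in 15% FBS RPMI-1640 were exposed to test compound for 96 hours at 37° C, with CellTiter-Glo as endpoint.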

Row | Structure (SMILES) | IC50 [nM]
1 | CC[C@H](C)[C@@H]1NC(=O)[C@H](CC(C)C)N(C)C(=O)C[C@@H](C)N(C)C(=O)[C@H](C2CCCCC2)N(C)C(=O)C2(CCCC2)NC(=O)[C@@H]2CC(F)(F)CN2C(=O)[C@H](CCc2ccc(C(F)(F)F)c(Cl)c2)NC(=O)CN(C)C(=O)[C@H](Cc2ccc(C(F)(F)F)cc2)N(C)C(=O)[C@@H]2CCN2C(=O)[C@H](C)N(C)C1=O [Compound 319] (cyclo([Ac5c][NMeChg][NMedβ3hAla][NMeL]I[NMeA][Aze][NMePhe(4-CF3)][Sar][hPhe(3-Cl-4-CF3)][Pro(4,4-F2)])) | 100 to 500
2 | CCO[C@@H]1C[C@H]2C(=O)NC3(CCCC3)C(=O)N(C)[C@@H](CC(C)C)C(=O)N(C)[C@H](C(=O)N3CCCC3)CC(=O)N(C)[C@@H](CC(C)C)C(=O)N[C@@H]([C@@H](C)CC)C(=O)N(C)CC(=O)N(C)CC(=O)N(C)[C@@H](CC3CCCCC3)C(=O)N(C)CC(=O)N[C@@H](CCc3ccc(C(F)(F)F)c(Cl)c3)C(=O)N2C1 [Compound 1748] ([NMeL]I[Sar][Sar][NMeCha][Sar][hPhe(3-Cl-4-CF3)][Hyp](Et)[Ac5c][NMeL][NMeD]-Pyrrolidide; lactam N-11) | 50 to 100
3 | CCCOC[C@H]1C(=O)N[C@@H]([C@@H](C)CC)C(=O)N(C)[C@@H](C)C(=O)N2CC[C@H]2C(=O)N(C)[C@@H](CC2CCCCC2)C(=O)N(C)CC(=O)N[C@@H](CCc2ccc(C(F)(F)F)c(Cl)c2)C(=O)N2CCC[C@H]2C(=O)NC2(CCCC2)C(=O)N(C)[C@@H](C(C)C)C(=O)N(C)[C@H](C(=O)N2CCCCC2)CC(=O)N1C [Compound 1763] ([NMeS](Propyl)I[NMeA][Aze][NMeCha][Sar][hPhe(3-Cl-4-CF3)]P[Ac5c][NMeV][NMeD]-Piperidide; lactam N-11) | 100 to 500
4 | CC[C@H](C)[C@@H]1NC(=O)[C@H](C)N(C)C(=O)C[C@@H](C)NC(=O)[C@H](C2CCCC2)N(C)C(=O)C2(CCCC2)NC(=O)[C@@H]2CCCN2C(=O)[C@H](CCc2ccc(C(F)(F)F)c(Cl)c2)NC(=O)[C@@H](C)N(C)C(=O)[C@H](C(C)C)N(C)C(=O)[C@@H]2CCN2C(=O)[C@H](C)N(C)C1=O [Compound 1066] (cyclo([Ac5c][NMeGly(cPent)][d(β3hA)][NMeA]I[NMeA][Aze][NMeV][dNMeA][hPhe(3-Cl-4-CF3)]P)) | 100 to 500
5 | CC[C@H](C)[C@@H]1NC(=O)[C@H](CC(C)C)N(C)C(=O)C[C@@H](C(=O)N2CCCCC2)N(C)C(=O)[C@H](C2CCCCC2)N(C)C(=O)C2(CCCC2)NC(=O)[C@@H]2C[C@H](OCCO)CN2C(=O)[C@H](CCc2ccc(C(F)(F)F)c(Cl)c2)NC(=O)CN(C)C(=O)[C@H](CC2CCCCC2)N(C)C(=O)CN(C)C(=O)CN(C)C1=O [Compound 2117, (3S,9S,18S,21S,25S,28S,34S,36S)-3-[2-[3-chloro-4-(trifluoromethyl)phenyl]ethyl]-28-cyclohexyl-9-(cyclohexylmethyl)-36-(2-hydroxyethoxy)-21-isobutyl-7,10,13,16,22,26,29-heptamethyl-18-[(1S)-1-methylpropyl]-25-(piperidine-1-carbonyl)spiro[1,4,7,10,13,16,19,22,26,29,32-undecazabicyclo[32.3.0]heptatriacontane-31,1′-cyclopentane]-2,5,8,11,14,17,20,23,27,30,33-undecone] ([NMeL]I[Sar][Sar][NMeCha][Sar][hPhe(3-Cl-4-CF3)][cisHyp](Ethyl(2-OH))[Ac5c][NMeChg][NMeD]-Piperidide; lactam N-11) | 100 to 500
6 | CC[C@H](C)[C@@H]1NC(=O)[C@H](CC(C)C)N(C)C(=O)C[C@@H](C(=O)N(C)C)N(C)C(=O)[C@H](C(C)C)N(C)C(=O)C2(CCCC2)NC(=O)[C@@H]2CCCN2C(=O)[C@H](CCc2ccc(C(F)(F)F)c(Cl)c2)NC(=O)CN(C)C(=O)[C@H](Cc2ccc(C)cc2)N(C)C(=O)[C@@H]2CCN2C(=O)[C@H](C)N(C)C1=O [Compound 1653] ([NMeL]I[NMeA][Aze][NMePhe(4-Me)][Sar][hPhe(3-Cl-4-CF3)]P[Ac5c][NMeV][NMeD]-NMe2; lactam N-11) | 50 to 100
7 | CC[C@H](C)[C@@H]1NC(=O)[C@H](CC(C)C)N(C)C(=O)C[C@@H](C(=O)N2CCC(C)CC2)N(C)C(=O)[C@H](C(C)C)N(C)C(=O)C2(CCCC2)NC(=O)[C@@H]2CCCN2C(=O)[C@H](CCc2ccc(C(F)(F)F)c(Cl)c2)NC(=O)CN(C)C(=O)[C@H](CC2CCCCC2)N(C)C(=O)[C@@H]2CCN2C(=O)[C@H](C)N(C)C1=O [Compound 1291] ([NMeL]I[NMeA][Aze][NMeCha][Sar][hPhe(3-Cl-4-CF3)]P[Ac5c][NMeV][NMeD]-{Piperidide(4-Me)}; lactam N-11) | 100 to 500
8 | CC[C@H](C)[C@@H]1NC(=O)[C@H](CC2CCCC2)N(C)C(=O)C[C@@H](C(=O)N2CCOCC2)N(C)C(=O)[C@H](C2CCCC2)N(C)C(=O)C2(CCCC2)NC(=O)[C@@H]2CCCN2C(=O)[C@H](CCc2ccc(C(F)(F)F)c(Cl)c2)NC(=O)CN(C)C(=O)[C@H](CC2CCCCC2)N(C)C(=O)[C@@H]2CCN2C(=O)[C@H](C)NC1=O [Compound 1176] ([NMeAla(cPent)]IA[Aze][NMeCha][Sar][hPhe(3-Cl-4-CF3)]P[Ac5c][NMeGly(cPent)][NMeD]-Morpholide; lactam N-11) | 50 to 100
9 | CC[C@H](C)[C@@H]1NC(=O)[C@H](CCC(F)F)N(C)C(=O)C[C@@H](C(=O)N2CCCCC2)N(C)C(=O)[C@H](C(C)C)N(C)C(=O)C2(CCCC2)NC(=O)[C@@H]2CCCN2C(=O)[C@H](CCc2ccc(C(F)(F)F)c(Cl)c2)NC(=O)CN(C)C(=O)[C@H](CC2CCCCC2)N(C)C(=O)[C@@H]2CCN2C(=O)[C@H](C)N(C)C1=O [Compound 1797] ([NMeNva(5,5-F2)]I[NMeA][Aze][NMeCha][Sar][hPhe(3-Cl-4-CF3)]P[Ac5c][NMeV][NMeD]-Piperidide; lactam N-11) | 100 to 500
10 | CC[C@H](C)[C@@H]1NC(=O)[C@H](C(C)C)N(C)C(=O)C[C@@H](C)NC(=O)[C@H](C(C)C)N(C)C(=O)C2(CCCC2)NC(=O)[C@H](CC(C)C)N(C)C(=O)[C@H](CCc2ccc(C(F)(F)F)c(Cl)c2)NC(=O)CN(C)C(=O)[C@H](Cc2ccc(Cl)cc2)N(C)C(=O)CN(C)C(=O)CN(C)C1=O [Compound 1069] (cyclo([Ac5c][NMeV][d(β3hA)][NMeV]I[Sar][Sar][NMePhe(4-Cl)][Sar][hPhe(3-Cl-4-CF3)][NMeL])) | 100 to 500
11 | CC[C@H](C)[C@@H]1NC(=O)[C@H](CC(C)C)N(CC)C(=O)C[C@@H](C(=O)N2CCCCC2)N(C)C(=O)[C@H](C(C)C)N(C)C(=O)C2(CCCC2)NC(=O)[C@@H]2CCCN2C(=O)[C@H](CCc2ccc(C(F)(F)F)c(Cl)c2)NC(=O)CN(C)C(=O)[C@H](CC2CCCCC2)N(C)C(=O)[C@@H]2CCN2C(=O)[C@H](C)N(C)C1=O [Compound 667] ([NEtLeu]I[NMeA][Aze][NMeCha][Sar][hPhe(3-Cl-4-CF3)]P[Ac5c][NMeV][NMeD]-Piperidide; lactam N-11) | 100 to 500
12 | CCCOC[C@H]1C(=O)N(C)CC(=O)N[C@@H](CCc2ccc(C(F)(F)F)c(F)c2)C(=O)N2CCC[C@H]2C(=O)NC2(CCCC2)C(=O)N(C)[C@@H]([C@@H](C)CC)C(=O)N(C)[C@H](C)CC(=O)N(C)[C@@H](CC(C)C)C(=O)N[C@@H]([C@@H](C)CC)C(=O)N(C)[C@@H](C)C(=O)N2CC[C@H]2C(=O)N1C [Compound 694] (cyclo([Ac5c][NMeI][NMedβ3hAla][NMeL]I[NMeA][Aze][NMeS](Propyl)[Sar][hPhe(3-F,4-CF3)]P)) | 20 to 50
13 | CC[C@H](C)[C@@H]1NC(=O)[C@H](CC(C)C)N(C)C(=O)C[C@@H](C(=O)N2CCCCC2)N(C)C(=O)[C@H](C2CCCCC2)N(C)C(=O)C2(CCCC2)NC(=O)CN(CC2COC2)C(=O)[C@H](CCc2ccc(C(F)(F)F)c(Cl)c2)NC(=O)CN(C)C(=O)[C@H](CC2CCCCC2)N(C)C(=O)CN(C)C(=O)CN(C)C1=O [Compound 2031] ([NMeL]I[Sar][Sar][NMeCha][Sar][hPhe(3-Cl-4-CF3)][X61][Ac5c][NMeChg][NMeD]-Piperidide; lactam N-11) | 100 to 500
14 | CC[C@H](C)[C@@H]1NC(=O)[C@H](CCC(C)C)N(C)C(=O)C[C@@H](C(=O)N2CCOCC2)N(C)C(=O)[C@H](C2CCCC2)N(C)C(=O)C2(CCCC2)NC(=O)[C@@H]2CCCN2C(=O)[C@H](CCc2ccc(C(F)(F)F)c(Cl)c2)NC(=O)CN(C)C(=O)[C@H](C2CCCC2)N(C)C(=O)[C@@H]2CCN2C(=O)[C@H](C)NC1=O [Compound 1223] ([NMehLeu]IA[Aze][NMeGly(cPent)][Sar][hPhe(3-Cl-4-CF3)]P[Ac5c][NMeGly(cPent)][NMeD]-Morpholide; lactam N-11) | 20 to 50
15 | CC[C@H](C)[C@@H]1NC(=O)[C@H](CCC(C)C)N(C)C(=O)C[C@@H](C(=O)N2CCOCC2)N(C)C(=O)[C@H](C2CCCC2)N(C)C(=O)C2(CCCC2)NC(=O)[C@@H]2CCCN2C(=O)[C@H](CCc2ccc(C(F)(F)F)c(Cl)c2)NC(=O)CN(C)C(=O)[C@H](CC2CCCCC2)N(C)C(=O)[C@@H]2CCN2C(=O)[C@H](C)NC1=O [Compound 1171] ([NMehLeu]IA[Aze][NMeCha][Sar][hPhe(3-Cl-4-CF3)]P[Ac5c][NMeGly(cPent)][NMeD]-Morpholide; lactam N-11) | 20 to 50
16 | CC[C@H](C)[C@@H]1NC(=O)[C@H]([C@@H](C)CC)N(C)C(=O)C[C@@H](C(=O)N2CCCCC2)N(C)C(=O)[C@H](C(C)C)N(C)C(=O)C2(CCCC2)NC(=O)[C@@H]2CCCN2C(=O)[C@H](CCc2ccc(C(F)(F)F)c(Cl)c2)NC(=O)CN(C)C(=O)[C@H](CC2CCCCC2)N(C)C(=O)[C@@H]2CCN2C(=O)[C@H](C)N(C)C1=O [Compound 1863] ([NMeI]I[NMeA][Aze][NMeCha][Sar][hPhe(3-Cl-4-CF3)]P[Ac5c][NMeV][NMeD]-Piperidide; lactam N-11) | 100 to 500
17 | CC[C@H](C)[C@@H]1NC(=O)[C@H](CC(C)C)N(C)C(=O)C[C@@H](C)N(C)C(=O)[C@H]([C@@H](C)CC)N(C)C(=O)C2(CCCC2)NC(=O)[C@@H]2CCCN2C(=O)[C@H](CCc2ccc(C(F)(F)F)c(Cl)c2)NC(=O)CN(C)C(=O)[C@H](C2CCCC2)N(C)C(=O)[C@@H]2CCN2C(=O)[C@H](C)N(C)C1=O [Compound 79] (cyclo([Ac5c][NMeI][NMedβ3hAla][NMeL]I[NMeA][Aze][NMeGly(cPent)][Sar][hPhe(3-Cl-4-CF3)]P)) | 20 to 50
